Some targets named below: AXL (Homo sapiens, UniProt P30530); BRAF(V600E) (Homo sapiens, UniProt P15056, V600E); CDK9 (Homo sapiens, UniProt P50750); DAPK1 (Homo sapiens, UniProt P53355); GRK3 (Homo sapiens, UniProt P35626); GRK4 (Homo sapiens, UniProt P32298); HASPIN (Homo sapiens, UniProt Q8TF76); IRAK4 (Homo sapiens, UniProt Q9NWZ3); MAP3K1 (Homo sapiens, UniProt Q13233); MAPKAPK2 (Homo sapiens, UniProt P49137); PIK3CD (Homo sapiens, UniProt O00329); PKMYT1 (Homo sapiens, UniProt Q99640); PRKCI (Homo sapiens, UniProt P41743).

Holding throughout (test): biochemical
What all share (design): KINOMEscan active-site-directed competition binding panel, 468 kinases, percent of DMSO control at 1 uM
Holding throughout (settings): KINOMEscan binding, percent of DMSO control; read-out: Ctrl%

In test [1] the target is T1, ABL1(F317I)-phosphorylated (Homo sapiens, UniProt P00519, F317I).
T1 construct: phosphorylated

For another test, the target named is T2, CTK (Homo sapiens, UniProt P42679).
T2 construct: gene MATK

Test [2] addresses EGFR(L747-S752del, P753S) (Homo sapiens, UniProt P00533, DEL747-752/P753S).
Test [3] concerns the target T3, JAK1(JH1domain-catalytic) (Homo sapiens, UniProt P23458).
T3 construct: JH1domain-catalytic

Another test has as its target T4, MEK5 (Homo sapiens, UniProt Q13163).
T4 construct: gene MAP2K5

In a further test the target is T5, NDR2 (Homo sapiens, UniProt Q9Y2H1).
T5 construct: gene STK38L

The target in another test is T6, PIK4CB (Homo sapiens, UniProt Q9UBF8).
T6 construct: gene PI4KB

The target of test [4] is T7, RPS6KA4(Kin.Dom.2-C-terminal) (Homo sapiens, UniProt O75676).
T7 construct: Kin.Dom.2-C-terminal
T7 sequence (O75676 whole entry): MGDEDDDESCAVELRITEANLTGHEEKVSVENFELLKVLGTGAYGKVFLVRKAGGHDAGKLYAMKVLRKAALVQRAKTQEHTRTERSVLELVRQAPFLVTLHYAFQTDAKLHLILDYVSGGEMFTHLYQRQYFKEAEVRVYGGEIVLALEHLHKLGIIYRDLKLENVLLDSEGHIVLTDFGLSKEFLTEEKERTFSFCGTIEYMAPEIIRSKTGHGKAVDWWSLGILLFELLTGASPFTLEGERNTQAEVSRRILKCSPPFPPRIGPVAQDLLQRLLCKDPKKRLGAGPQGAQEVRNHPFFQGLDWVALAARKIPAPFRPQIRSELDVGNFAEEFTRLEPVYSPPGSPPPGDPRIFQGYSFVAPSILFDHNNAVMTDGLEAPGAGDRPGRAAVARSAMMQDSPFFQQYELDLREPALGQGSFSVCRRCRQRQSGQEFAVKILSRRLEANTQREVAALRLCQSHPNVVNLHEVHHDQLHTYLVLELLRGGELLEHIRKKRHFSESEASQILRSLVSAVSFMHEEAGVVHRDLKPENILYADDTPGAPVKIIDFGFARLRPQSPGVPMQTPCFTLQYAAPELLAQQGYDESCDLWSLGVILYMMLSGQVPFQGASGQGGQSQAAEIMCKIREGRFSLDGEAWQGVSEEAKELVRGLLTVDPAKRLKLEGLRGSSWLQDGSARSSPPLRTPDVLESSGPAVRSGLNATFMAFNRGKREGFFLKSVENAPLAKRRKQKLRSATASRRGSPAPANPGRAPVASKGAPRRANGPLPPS

In another test the target is T8, SgK110 (Homo sapiens, UniProt P0C264).
T8 construct: gene SBK3

In the next test the target is T9, TAK1 (Homo sapiens, UniProt O43318).
T9 construct: gene MAP3K7

MAPKAPK2, sequence (P49137 whole entry): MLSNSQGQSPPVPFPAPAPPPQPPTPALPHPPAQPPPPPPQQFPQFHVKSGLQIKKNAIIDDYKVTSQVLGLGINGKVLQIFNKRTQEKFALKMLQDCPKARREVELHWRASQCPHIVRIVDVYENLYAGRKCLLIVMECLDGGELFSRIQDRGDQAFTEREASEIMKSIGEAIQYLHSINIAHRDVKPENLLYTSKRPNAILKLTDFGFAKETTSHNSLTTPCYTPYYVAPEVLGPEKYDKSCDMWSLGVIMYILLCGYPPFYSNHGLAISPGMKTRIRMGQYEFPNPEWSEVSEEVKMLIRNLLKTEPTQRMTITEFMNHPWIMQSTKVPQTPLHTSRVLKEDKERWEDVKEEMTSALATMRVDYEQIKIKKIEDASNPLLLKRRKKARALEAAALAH
GRK4, sequence (P32298 whole entry): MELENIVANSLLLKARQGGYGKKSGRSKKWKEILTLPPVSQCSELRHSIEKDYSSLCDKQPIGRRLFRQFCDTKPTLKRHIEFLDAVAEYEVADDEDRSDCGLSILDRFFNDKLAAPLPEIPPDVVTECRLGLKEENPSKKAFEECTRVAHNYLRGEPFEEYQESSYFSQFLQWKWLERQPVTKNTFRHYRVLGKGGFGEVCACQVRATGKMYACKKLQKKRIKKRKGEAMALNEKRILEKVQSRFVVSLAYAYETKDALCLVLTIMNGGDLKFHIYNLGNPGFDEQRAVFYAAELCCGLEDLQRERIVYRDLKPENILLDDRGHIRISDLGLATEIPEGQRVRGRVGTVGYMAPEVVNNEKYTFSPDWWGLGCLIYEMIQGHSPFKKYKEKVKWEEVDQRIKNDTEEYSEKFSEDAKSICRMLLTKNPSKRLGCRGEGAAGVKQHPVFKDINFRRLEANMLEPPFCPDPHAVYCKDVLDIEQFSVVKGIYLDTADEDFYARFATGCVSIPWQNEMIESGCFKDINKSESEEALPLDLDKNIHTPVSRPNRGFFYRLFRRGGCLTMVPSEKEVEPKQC
PIK3CD, sequence (O00329 whole entry): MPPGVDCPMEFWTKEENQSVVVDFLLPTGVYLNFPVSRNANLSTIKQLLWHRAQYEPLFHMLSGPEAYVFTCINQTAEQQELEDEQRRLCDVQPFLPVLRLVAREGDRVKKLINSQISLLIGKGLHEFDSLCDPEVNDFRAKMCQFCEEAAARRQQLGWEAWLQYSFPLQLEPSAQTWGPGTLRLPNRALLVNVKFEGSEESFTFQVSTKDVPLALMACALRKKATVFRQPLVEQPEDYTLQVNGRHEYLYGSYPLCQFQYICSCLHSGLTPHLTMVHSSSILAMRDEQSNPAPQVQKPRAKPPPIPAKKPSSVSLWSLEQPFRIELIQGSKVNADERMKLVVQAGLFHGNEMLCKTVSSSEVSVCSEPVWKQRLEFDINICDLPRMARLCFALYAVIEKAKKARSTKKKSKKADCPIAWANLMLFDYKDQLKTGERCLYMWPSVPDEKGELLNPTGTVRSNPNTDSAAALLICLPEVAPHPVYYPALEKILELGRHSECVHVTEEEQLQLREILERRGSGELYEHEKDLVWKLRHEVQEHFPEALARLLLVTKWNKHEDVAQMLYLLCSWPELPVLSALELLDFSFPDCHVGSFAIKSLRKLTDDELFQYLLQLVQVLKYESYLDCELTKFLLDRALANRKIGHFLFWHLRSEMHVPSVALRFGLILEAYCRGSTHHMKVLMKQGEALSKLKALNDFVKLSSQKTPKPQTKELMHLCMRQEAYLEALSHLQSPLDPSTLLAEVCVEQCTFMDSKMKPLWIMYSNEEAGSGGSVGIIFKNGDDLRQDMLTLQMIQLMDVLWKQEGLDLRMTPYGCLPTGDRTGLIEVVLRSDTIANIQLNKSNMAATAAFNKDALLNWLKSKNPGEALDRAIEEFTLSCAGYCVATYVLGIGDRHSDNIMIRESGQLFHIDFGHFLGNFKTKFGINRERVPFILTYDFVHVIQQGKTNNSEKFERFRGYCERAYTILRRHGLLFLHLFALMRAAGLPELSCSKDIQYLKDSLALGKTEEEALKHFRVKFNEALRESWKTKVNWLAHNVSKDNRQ
PRKCI, sequence (P41743 whole entry): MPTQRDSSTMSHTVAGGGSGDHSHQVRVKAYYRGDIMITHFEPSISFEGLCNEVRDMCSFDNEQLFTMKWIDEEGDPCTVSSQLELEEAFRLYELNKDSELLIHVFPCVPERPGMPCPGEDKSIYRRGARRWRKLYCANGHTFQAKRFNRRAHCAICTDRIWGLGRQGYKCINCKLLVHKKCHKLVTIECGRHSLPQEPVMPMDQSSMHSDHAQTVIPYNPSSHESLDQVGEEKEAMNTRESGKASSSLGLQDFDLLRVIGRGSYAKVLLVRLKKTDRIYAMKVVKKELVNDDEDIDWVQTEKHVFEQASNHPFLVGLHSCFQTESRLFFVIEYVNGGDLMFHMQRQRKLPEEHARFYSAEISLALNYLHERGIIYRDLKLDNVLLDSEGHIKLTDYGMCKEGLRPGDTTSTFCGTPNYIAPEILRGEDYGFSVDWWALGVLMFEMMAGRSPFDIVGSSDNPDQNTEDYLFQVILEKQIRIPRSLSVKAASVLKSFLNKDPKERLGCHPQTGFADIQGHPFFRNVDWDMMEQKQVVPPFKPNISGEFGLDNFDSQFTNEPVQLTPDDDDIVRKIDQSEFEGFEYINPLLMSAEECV
T4 sequence (Q13163 whole entry): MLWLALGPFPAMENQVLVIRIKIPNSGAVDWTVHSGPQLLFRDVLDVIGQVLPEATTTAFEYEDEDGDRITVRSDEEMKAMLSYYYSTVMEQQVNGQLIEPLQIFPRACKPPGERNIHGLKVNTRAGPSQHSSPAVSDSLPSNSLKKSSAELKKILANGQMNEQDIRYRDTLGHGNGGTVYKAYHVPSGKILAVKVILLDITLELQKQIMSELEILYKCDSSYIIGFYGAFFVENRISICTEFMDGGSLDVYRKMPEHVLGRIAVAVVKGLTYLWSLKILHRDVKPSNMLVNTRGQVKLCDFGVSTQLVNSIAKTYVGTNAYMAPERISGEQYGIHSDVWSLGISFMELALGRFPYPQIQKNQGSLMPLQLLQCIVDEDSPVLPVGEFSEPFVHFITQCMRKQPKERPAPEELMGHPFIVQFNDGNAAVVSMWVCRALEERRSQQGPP
EGFR(L747-S752del, P753S), sequence (P00533 with tags, fused parts or gaps DEL747-752/P753S): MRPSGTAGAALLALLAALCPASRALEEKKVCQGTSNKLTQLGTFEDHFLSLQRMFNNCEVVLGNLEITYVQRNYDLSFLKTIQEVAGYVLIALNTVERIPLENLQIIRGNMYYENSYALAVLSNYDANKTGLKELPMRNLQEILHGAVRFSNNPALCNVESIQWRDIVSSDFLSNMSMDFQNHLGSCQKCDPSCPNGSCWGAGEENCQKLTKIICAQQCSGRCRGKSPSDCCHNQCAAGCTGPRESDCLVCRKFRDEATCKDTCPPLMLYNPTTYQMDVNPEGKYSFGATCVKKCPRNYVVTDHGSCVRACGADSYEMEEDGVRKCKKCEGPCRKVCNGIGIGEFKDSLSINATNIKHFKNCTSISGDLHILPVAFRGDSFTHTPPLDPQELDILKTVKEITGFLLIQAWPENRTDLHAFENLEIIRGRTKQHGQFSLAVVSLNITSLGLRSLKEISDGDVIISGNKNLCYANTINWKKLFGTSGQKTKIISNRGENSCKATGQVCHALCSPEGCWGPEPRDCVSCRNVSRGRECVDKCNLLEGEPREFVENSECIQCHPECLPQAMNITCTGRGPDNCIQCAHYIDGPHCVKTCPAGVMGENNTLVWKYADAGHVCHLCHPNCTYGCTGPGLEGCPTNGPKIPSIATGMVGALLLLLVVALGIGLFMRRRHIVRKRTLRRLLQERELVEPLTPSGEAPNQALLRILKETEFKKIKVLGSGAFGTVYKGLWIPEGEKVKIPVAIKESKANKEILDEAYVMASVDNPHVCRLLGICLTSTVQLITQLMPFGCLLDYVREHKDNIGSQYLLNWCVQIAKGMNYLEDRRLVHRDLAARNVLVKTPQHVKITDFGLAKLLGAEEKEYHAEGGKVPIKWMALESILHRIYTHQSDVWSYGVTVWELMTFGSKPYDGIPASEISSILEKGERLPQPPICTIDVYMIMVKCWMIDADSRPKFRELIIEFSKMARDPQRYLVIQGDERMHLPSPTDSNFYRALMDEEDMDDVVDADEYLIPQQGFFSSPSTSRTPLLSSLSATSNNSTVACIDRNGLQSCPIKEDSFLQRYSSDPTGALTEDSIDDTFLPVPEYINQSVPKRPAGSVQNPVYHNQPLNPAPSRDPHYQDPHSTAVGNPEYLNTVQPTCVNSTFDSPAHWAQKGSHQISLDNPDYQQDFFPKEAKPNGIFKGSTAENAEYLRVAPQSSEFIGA

Consider `Cc1ccc(NC(=O)c2cccc(C(F)(F)F)c2)cc1Nc1cc(-c2cccnc2)nc2[nH]ccc12` [HZX-02-059], for which the remaining binding at 1 µM in [1] is 55%; on AXL, 90%; at BRAF(V600E), 4.5%; at CDK9, 100%; at CTK, 56%; on DAPK1, 93%. For the same compound, the remaining binding at 1 µM is 80% in test [2]; 98% at GRK3; 83% at GRK4; 100% on HASPIN; 100% on IRAK4; 100% in test [3]. The remaining binding at 1 µM on MAP3K1 was 56%; on MAPKAPK2, 80%; at MEK5, 83%; at NDR2 it was 94%; at PIK3CD, 97%; at PIK4CB, 78%. Also, the remaining binding at 1 µM at PKMYT1 amounted to 96%; at PRKCI it was 71%; in test [4], 97%; at SgK110, 100%; on TAK1, 73%.

(Values after PMC8799717, “Pharmacological targeting PIKfyve and tubulin as an effective treatment strategy for double-hit lymphoma” (Cell Death Discovery, 2022).)
